Experimental data as given in ChEMBL document CHEMBL1126533, “Synthesis of a potential photoaffinity labelling reagent for HIV-1 reverse transcriptase” (Bioorg Med Chem Lett, 1993).

How the values were obtained:
MT4 [1] = assay: Effective concentration required to achieve 50% protection of MT-4 cells against the cytopathic effect of HIV-1; type: functional, cell-based; conditions: Homo sapiens
MT4 [2] = assay: Cytotoxic concentration required to reduce viability of mock-infected MT-4 cells by 50%; type: functional; conditions: Homo sapiens

| Compound | EC50 (MT4 [1]) [nM] | CC50 (MT4 [2]) [µM] |
| --- | --- | --- |
| CCOCn1c(C(=O)c2cccc([N+](=O)[O-])c2)c(CC)c(=O)[nH]c1=O | 210 | 232 |
| CCOCn1c(Cc2cccc(N=[N+]=[N-])c2)c(CC)c(=O)[nH]c1=O | 11 | 117 |
| CCOCn1c(Sc2ccccc2)c(CC)c(=O)[nH]c1=O | 18 | 197 |
| Cc1c(Sc2ccccc2)n(COCCO)c(=O)[nH]c1=O [HEPT] |  | 740 |
| CCOCn1c(Cc2cccc(O)c2)c(CC)c(=O)[nH]c1=O | 400 | 201 |
| CCOCn1c(C(OC(C)=O)c2cccc([N+](=O)[O-])c2)c(CC)c(=O)[nH]c1=O (stereo not drawn) | 29000 | 283 |
| CCOCn1c(Cc2cccc(N)c2)c(CC)c(=O)[nH]c1=O | 140 | 297 |
